Data from patent publication US7955618B2, “Composition for treatment of inflammatory disorders” (Enceladus Pharmaceuticals B.V., priority 2001, dated 2011).

Columns and labels:
[1] = tested on: AT-EAE (T cells and macrophages in spinal cord); details: 50 mg/kg i.v. at 18 h and 6 h before perfusion
Description: Adoptive Transfer Experimental Autoimmune Encephalomyelitis (AT-EAE) was induced in female Lewis rats by intravenous injection of 10^7 MBP-specific T cells.
10 mg/kg prednisolone phosphate containing liposomes, as prepared according to Example I, were applied intravenously at 42 hours and 18 hours prior to sacrifice. Another group received 50 mg/kg methylprednisolone intravenously at 18 hours and 6 hours before perfusion. Control rats received empty liposomes and/or saline at equivalent time points.
T cells or macrophages in spinal cord were detected immunohistochemically in paraffin embedded tissue and apoptosis was assessed by the TUNEL assay and by morphological criteria. Student t test for grouped data was used for statistical analysis.

[2] = tested on: rat adjuvant arthritis model (paw inflammation); test: Rat adjuvant arthritis model, visual paw inflammation score; assay type: in vivo, Lewis rats; details: for average inflammation score: day 15 until day 21, 6.5±0.56 on day 14, daily saline max 10.6±1.3 on day 20; for effect on course of the disease (paw inflammation): single injection, doses equal to liposomal drug, p>0.05 Kruskall-Wallis
Description: Lewis rats were immunized subcutaneously at the tail base with heat-inactivated Mycobacterium tuberculosis in incomplete Freund's adjuvant.
Assessment of the disease was performed by visually scoring paw inflammation severity, maximum score 4 per paw, and measuring disease-induced body weight loss. […] Rats were treated when the average score >6 (at day 14 or 15 after disease induction).

Row | Compound | clinical score ([1]; controls 3.2±0.3) | macrophage infiltration in spinal cord ([1]; controls 78±37) | T cell infiltration in spinal cord ([1]; controls 115±51) | rate of T cell apoptosis in spinal cord tissue ([1]; mean±SD, control 16.1±4.3%) | average inflammation score ([2]; 10 mg/kg daily for 7 days) | average inflammation score ([2]; 20 mg/kg daily for 7 days) | effect on course of the disease (paw inflammation) [2] | effect on course of the disease (paw inflammation) ([2]; listed as unencapsulated prednisolone phosphate)
1 | C[C@H]1C[C@@H]2[C@H]([C@@H](O)C[C@@]3(C)[C@H]2CC[C@]3(O)C(=O)CO)[C@@]2(C)C=CC(=O)C=C12 [Methylprednisolone, methylprednisolone] | 3.2±0.3 | 66±25 macrophages/mm^2 | 96±19 T cells/mm^2 | 30.8±8.0% |  |  |  | 
2 | prednisolone disodium phosphate [Unencapsulated prednisolone phosphate] |  |  |  |  | around 5.0 | around 5.0 | did not significantly alter the course of the disease | No effect
